Assay [1] has as its system ECL1004 Enterobacter cloacae NMC-A. The assay is described as follows: Checkerboard assay, biapenem potentiation. Particulars: Biapenem MIC 8-fold; ECL1004 NMC-A class A.
The next assay addresses SHV-18, lysate of KP1012 (Klebsiella pneumoniae, UniProt P0AD64, E235K/G234A/R39S). The experiment in a line: Inhibition of ceftazidime hydrolysis by bacterial lysate.
The target of the next assay is OXA-10, lysate of KP1007 (Pseudomonas aeruginosa, UniProt P14489). Described as above.
The test system of assay [2] is KP1014 Klebsiella pneumoniae Vim-1. The assay is described as follows: Ceftazidime MIC with fixed concentration of BLI. The conditions noted are these: derivative at 10 μg/mL; KP1014 Vim-1. The assay is classed as cell-based. Here is the method: (§1) Next, ceftazidime potentiation activity of several cyclic boronic acid ester derivatives was tested using a larger panel of strains expressing β-lactamase hydrolyzing enzymes. Ceftazidime MICs were determined alone and in the presence of fixed concentrations of various cyclic boronic acid ester derivatives.

Assay [3] deals with CF1001 Citrobacter freundii Hyper AmpC expression. The assay is described as follows: Ceftazidime MIC with fixed concentration of BLI. The assay is classed as cell-based. Particulars: derivative at 10 μg/mL. Here is the method: as §1
The subject of another assay is SA1000 Salmonella CMY-2. The assay is described as follows: Ceftazidime MIC with fixed concentration of BLI. The assay is classed as cell-based. The conditions noted are these: derivative at 10 μg/mL; SA1000 CMY-2. As to the method: as §1
For assay [4], the system named is ec307 Escherichia coli SHV-4. The experiment in a line: Ceftazidime MIC with fixed concentration of BLI. In kind it is cell-based. Particulars: derivative at 10 μg/mL; ec307 SHV-4. As to the method:
as §1

Assay [5] has as its system ECL1003 Enterobacter cloacae Hyper AmpC expression. The experiment in a line: Ceftazidime MIC with fixed concentration of BLI. The assay is classed as cell-based. Particulars: derivative at 10 μg/mL. As to the method:
as §1

For assay [6], the system named is AB1052 Acinetobacter baumannii OXA-24. The assay is described as follows: Ceftazidime MIC with fixed concentration of BLI. Particulars: derivative at 10 μg/mL; AB1052 OXA-24. In kind it is cell-based. Here is the method:
as §1

The subject of assay [7] is EC1016 Escherichia coli FOX-5. The experiment in a line: Ceftazidime MIC with fixed concentration of BLI. The conditions noted are these: derivative at 10 μg/mL; EC1016 FOX-5. The assay is classed as cell-based. Here is the method:
as §1

For assay [8], the system named is EC1007 Escherichia coli KPC-3. The assay is described as follows: Ceftazidime MIC with fixed concentration of BLI. Particulars: derivative at 10 μg/mL; EC1007 KPC-3. In kind it is cell-based. As to the method:
as §1

The subject of assay [9] is KP1013 Klebsiella pneumoniae CMY-2. The assay is described as follows: Ceftazidime MIC with fixed concentration of BLI. The assay is classed as cell-based. The conditions noted are these: derivative at 10 μg/mL; KP1013 CMY-2. As to the method: as §1
For assay [10], the system named is KP1006 Klebsiella pneumoniae CTX-M2. The experiment in a line: Ceftazidime MIC with fixed concentration of BLI. In kind it is cell-based. Particulars: derivative at 10 μg/mL. As to the method:
as §1

The next assay concerns the target KPC-2, lysate of KP1004 (Klebsiella pneumoniae, UniProt Q9F663). The assay is described as follows: Inhibition of ceftazidime hydrolysis by bacterial lysate.
Assay [11] concerns KP1011 Klebsiella pneumoniae SHV-5. The assay is described as follows: microbe, parasite or virus in culture. The assay is classed as cell-based. The conditions noted are these: derivative at 10 μg/mL; KP1011 SHV-5. Here is the method:
as §1

Assay [12] concerns the target various β-lactamases (bacterial lysates) (Escherichia coli, UniProt A0A5R8T042). The assay is described as follows: biochemical. Particulars: read-out: AZT IC50 KP1009 CTX-M-15. In kind it is biochemical.
Assay [13] deals with various β-lactamases (bacterial lysates) (Klebsiella pneumoniae, UniProt Q9F663, H272Y). The experiment in a line: biochemical. In kind it is biochemical.
Assay [14] has as its target various β-lactamases (bacterial lysates) (Pseudomonas aeruginosa, UniProt P14489). The experiment in a line: biochemical. The assay is classed as biochemical. The conditions noted are these: AZT IC50 KP1007 OXA-10.
Assay [15] addresses various β-lactamases (bacterial lysates) (Salmonella typhimurium, UniProt P0A1V8). The experiment in a line: biochemical. The assay is classed as biochemical. Particulars: AZT IC50 KPX1001 OXA-2.
For assay [16], the target named is various β-lactamases (bacterial lysates) (Klebsiella pneumoniae, UniProt Q9F663). The assay is described as follows: biochemical. The assay is classed as biochemical. Particulars: aztreonam cleavage.
Assay [17] addresses various β-lactamases (bacterial lysates) (Escherichia coli, UniProt A0A649V088). The assay is described as follows: biochemical. The assay is classed as biochemical. Particulars: read-out: AZT IC50 KP1005 CTX-M-14.
Assay [18] deals with CTX-M-14, lysate of KP1005 (Escherichia coli, UniProt Q9L5C7). The assay is described as follows: Inhibition of ceftazidime hydrolysis by bacterial lysate.
Another assay has as its target SHV-2, lysate of ec306 (Escherichia coli, UniProt P0A9Z7). Described as above.
Another assay has as its target KPC-2, lysate of KP1008 (Klebsiella pneumoniae, UniProt Q9F663). The description is as above.
The target in the next assay is GES-1, lysate of pa 1063 (Klebsiella pneumoniae, UniProt Q9KJY7). The description is as above.
Another assay deals with OXA-2, lysate of KX1000 (Salmonella typhimurium, UniProt P0A1V8). The description is as above.
The target in another assay is SHV-5, lysate of ec308 (Escherichia coli, UniProt P0AD63, E235K/G234S). The assay is described as above.
Another assay deals with SHV-12, lysate of KP1010 (Klebsiella pneumoniae, UniProt P0AD64, E235K/G234S/L31Q). The assay is described as above.
Assay [19] deals with CTX-M-15, lysate of KP1009 (Escherichia coli, UniProt Q9EXV5). The description is as above.
Sequence of CTX-M-15, lysate of KP1009 (Q9EXV5 entry or part of it): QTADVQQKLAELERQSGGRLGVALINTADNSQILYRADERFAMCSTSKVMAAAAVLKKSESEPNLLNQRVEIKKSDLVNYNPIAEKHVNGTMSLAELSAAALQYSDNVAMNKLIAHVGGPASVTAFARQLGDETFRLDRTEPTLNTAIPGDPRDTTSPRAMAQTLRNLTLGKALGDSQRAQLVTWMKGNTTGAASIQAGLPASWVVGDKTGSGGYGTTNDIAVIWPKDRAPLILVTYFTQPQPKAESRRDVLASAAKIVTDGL
The subject of assay [20] is AB1052 Acinetobacter baumannii OXA-24. The experiment in a line: Checkerboard assay, biapenem potentiation. Particulars: Biapenem MIC 8-fold; AB1052 OXA-24 class D.
Where [21] appears, read: lysate KP1004 KPC-2, read-out: AZT IC50 KP1004 KPC-2 (converted).
Where [22] appears, read: lysate KP1008 KPC-2, read-out: AZT IC50 KP1008 KPC-2.

Where two headings read alike, the source gives them in different places.

Sequence of various β-lactamases (bacterial lysates) (Escherichia coli, UniProt A0A5R8T042) (A0A5R8T042 29-291): as the sequence (Q9EXV5 entry or part of it) above

Usually IC50 stands for the concentration that inhibits the measured activity by half. Turning to `CC(=O)N[C@H]1CCC(CC(=O)O)OB1O` (stereo partly drawn) [Compound 3, 2-((3R)-3-acetamido-2-hydroxy-1,2-oxaborinan-6-yl)acetic acid], the MPC8 entry in [1] is reported as “X (MPC8 of less than 0.16 μg/mL)”; in assay [20] it was “Z (MPC8 of greater than 1 μg/mL)”. Also, the IC50 was greater than 4.65 µM at SHV-18, lysate of KP1012; greater than 4.65 µM against OXA-10, lysate of KP1007; less than 0.465 µM at KPC-2, lysate of KP1004; greater than 9.3 µM in [12]; less than 2.33 µM in assay [13]; greater than 9.3 µM in assay [14]. Besides, the 50% inhibitory concentration (IC50) in [15] is greater than 9.3 µM; in assay [16] (setting [21]), less than 2.33 µM; in assay [16] (setting [22]) it was 2.33 to 9.3 µM; in assay [17], less than 2.33 µM; in [18], greater than 4.65 µM; on SHV-2, lysate of ec306 it was greater than 4.65 µM. Moreover, the IC50 is 0.465 to 4.65 µM at KPC-2, lysate of KP1008; greater than 4.65 µM on GES-1, lysate of pa 1063; greater than 4.65 µM against OXA-2, lysate of KX1000; greater than 4.65 µM at SHV-5, lysate of ec308; greater than 4.65 µM on SHV-12, lysate of KP1010; greater than 4.65 µM in assay [19]. The “Ceftazidime MIC with cyclic boronic acid ester derivative” value (“Ceftazidime MIC” for short) (in assay [2]; in [3]; with SA1000 Salmonella CMY-2; in assay [4]; in [5]; in assay [6]) was “Z (MIC of greater than 8 μg/mL)” each time. Moreover, the “Ceftazidime MIC” value was “Z (MIC of greater than 8 μg/mL)” in assay [7]; “X (MIC of 1 μg/mL or less)” in assay [8]; “Z (MIC of greater than 8 μg/mL)” in [9]; “X (MIC of 1 μg/mL or less)” in assay [10]; “X (MIC of 1 μg/mL or less)” in assay [11].

For the compound `O=C(O)C[C@@H]1CC[C@H](NC(=O)Cc2cccs2)B(O)O1` [Compound 5, 2-((3R,6S)-2-hydroxy-3-(2-(thiophen-2-yl)acetamido)-1,2-oxaborinan-6-yl)acetic acid], the MPC8 entry in [1] is “Y (MPC8 of 0.16 μg/mL to 1 μg/mL)”; in [20], “Z (MPC8 of greater than 1 μg/mL)”. Besides, the 50% inhibitory concentration (IC50) was 0.337 to 3.37 µM on SHV-18, lysate of KP1012; 0.337 to 3.37 µM against OXA-10, lysate of KP1007; 1.68 to 6.73 µM in assay [12]; less than 1.68 µM in assay [13]; greater than 6.73 µM in assay [14]; less than 1.68 µM in assay [15]. Moreover, the half-inhibitory concentration (IC50) in [16] (setting [21]) is less than 1.68 µM; in [16] (setting [22]), less than 1.68 µM; in assay [17], less than 1.68 µM; in assay [18], less than 0.337 µM; against SHV-2, lysate of ec306, 0.337 to 3.37 µM; on GES-1, lysate of pa 1063 it was less than 0.337 µM. Further, the IC50 is less than 0.337 µM at OXA-2, lysate of KX1000; greater than 3.37 µM at SHV-5, lysate of ec308; 0.337 to 3.37 µM against SHV-12, lysate of KP1010; less than 0.337 µM in assay [19]. In addition, the “Ceftazidime MIC” value is “Z (MIC of greater than 8 μg/mL)” in assay [2]; “Y (MIC of greater than 1 μg/mL to 8 μg/mL)” in [3]; “Y (MIC of greater than 1 μg/mL to 8 μg/mL)” with SA1000 Salmonella CMY-2; “Y (MIC of greater than 1 μg/mL to 8 μg/mL)” in assay [4]; “Z (MIC of greater than 8 μg/mL)” in assay [5]; “Z (MIC of greater than 8 μg/mL)” in [6]. Also, the “Ceftazidime MIC” value in [7] is given as “Z (MIC of greater than 8 μg/mL)”; in assay [8], “X (MIC of 1 μg/mL or less)”; in assay [9], “Y (MIC of greater than 1 μg/mL to 8 μg/mL)”; in assay [10], “X (MIC of 1 μg/mL or less)”.

Take `Cl.N[C@H]1CCC(CC(=O)O)OB1O` (stereo partly drawn) [Compound 7, 2-((3R)-3-amino-2-hydroxy-1,2-oxaborinan-6-yl)acetic acid hydrochloride]: the concentration for half-maximal inhibition (IC50) is greater than 4.77 µM at SHV-18, lysate of KP1012; greater than 4.77 µM on OXA-10, lysate of KP1007; greater than 4.77 µM against KPC-2, lysate of KP1004; greater than 4.77 µM in [18]; greater than 4.77 µM against SHV-2, lysate of ec306; greater than 4.77 µM against KPC-2, lysate of KP1008. Also, the half-inhibitory concentration (IC50) on GES-1, lysate of pa 1063 was 0.477 to 4.77 µM; against OXA-2, lysate of KX1000, greater than 4.77 µM; on SHV-5, lysate of ec308 it was greater than 4.77 µM; at SHV-12, lysate of KP1010, greater than 4.77 µM; in assay [19], 0.477 to 4.77 µM. In addition, the “Ceftazidime MIC” value in assay [4] and in [8] was “Z (MIC of greater than 8 μg/mL)” in each case.

(Values after patent US11090319B2, “Therapeutic uses of pharmaceutical compositions comprising cyclic boronic acid ester derivatives” (Melinta Subsidiary Corp., priority 2010, dated 2021).)
